Assay results taken from PubChem BioAssay (NCI).
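Following 48 hours of exposure in 96-well plates, responses at five concentrations were used to interpolate endpoints linearly. GI50: concentration for 50% inhibition of growth. TGI: concentration producing complete growth inhibition.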

Experiments:
Experiment in all cases: growth of human tumour cells (NCI), 48 h
[1] = test system: A549 NSCLC
[2] = test system: CAKI-1 renal
[3] = test system: CCRF-CEM leukemia
[4] = test system: K-562 leukemia
[5] = test system: KM12 colon
[6] = test system: NCI/ADR-RES ovarian
[7] = test system: OVCAR-3 ovarian
[8] = test system: SK-MEL-2 melanoma
[9] = test system: U251 CNS
[10] = test system: UO-31 renal

## Cc1cc2c(cc1C)[n+](=O)c(C(=O)/C=C/c1ccccc1[N+](=O)[O-])c(C)n2[O-]
[1]
  TGI: > 100 µM
[2]
  TGI: > 97.7 µM
[3]
  TGI: > 100 µM
[4]
  TGI: > 100 µM
[5]
  TGI: > 100 µM
[6]
  TGI: > 100 µM
[7]
  TGI: > 97 µM
[8]
  TGI: 55.2 µM
[9]
  TGI: 64.8 µM
[10]
  TGI: > 100 µM

## CC/C(=C(/c1ccc(/C=C/C(=O)O)cc1)c1ccc2[nH]ncc2c1)c1ccc(F)cc1Cl
[1]
  GI50: 8.58 µM
  TGI: 25.1 µM
[2]
  GI50: 11.9 µM
  TGI: 25.6 µM
[3]
  GI50: 8.37 µM
  TGI: 30.7 µM
[4]
  GI50: 12.1 µM
  TGI: 41 µM
[5]
  GI50: 6.79 µM
  TGI: 21.5 µM
[6]
  GI50: 9.08 µM
  TGI: 26.5 µM
[7]
  GI50: 11.8 µM
  TGI: 24.9 µM
[8]
  GI50: 10.2 µM
  TGI: 27 µM
[9]
  GI50: 9.44 µM
  TGI: 23.5 µM
[10]
  GI50: 11.2 µM
  TGI: 24.7 µM

## CC1(C)N=C(N)N=C(N)N1c1ccc(OCCCCNC(=O)Nc2cccc(S(=O)(=O)F)c2)c(Cl)c1
[1]
  GI50: 2.27 µM
  TGI: > 100 µM
[2]
  GI50: 35.4 µM
  TGI: > 100 µM
[3]
  GI50: 0.95 µM
  TGI: > 100 µM
[4]
  GI50: 0.351 µM
  TGI: > 100 µM
[5]
  GI50: 2.64 µM
  TGI: > 100 µM
[6]
  GI50: > 100 µM
  TGI: > 100 µM
[7]
  GI50: 6.89 µM
  TGI: > 100 µM
[8]
  GI50: 13.6 µM
  TGI: > 100 µM
[9]
  GI50: 0.674 µM
  TGI: > 100 µM
[10]
  GI50: 40.5 µM
  TGI: > 100 µM

## COC(=O)C1=Nc2ccc(F)cc2/C1=C/c1sc(=S)[nH]c1O
[1]
  GI50: 0.254 µM
  TGI: > 100 µM
[2]
  GI50: 0.097 µM
  TGI: 7 µM
[3]
  GI50: 0.133 µM
  TGI: > 100 µM
[4]
  GI50: 0.045 µM
  TGI: > 100 µM
[5]
  GI50: 0.0734 µM
  TGI: 10.7 µM
[6]
  GI50: 0.0704 µM
  TGI: 11.5 µM
[7]
  GI50: 0.0441 µM
  TGI: 3.66 µM
[8]
  GI50: 0.806 µM
  TGI: 41 µM
[9]
  GI50: 0.0838 µM
  TGI: 14.2 µM
[10]
  GI50: 0.457 µM
  TGI: 5.14 µM

## CCc1ccc(C2=NN(c3ccc(S(C)(=O)=O)cc3)C(=O)CC2)cc1
[1]
  GI50: 0.913 µM
  TGI: > 100 µM
[2]
  GI50: 1.65 µM
  TGI: > 28.7 µM
[3]
  GI50: 1.23 µM
  TGI: > 21.6 µM
[4]
  GI50: 0.488 µM
  TGI: > 100 µM
[5]
  GI50: 0.817 µM
  TGI: > 96.1 µM
[6]
  GI50: 0.416 µM
  TGI: 2.6 µM
[7]
  GI50: 0.385 µM
  TGI: 2.36 µM
[8]
  GI50: 1.24 µM
  TGI: 98.4 µM
[9]
  GI50: 1.83 µM
  TGI: > 100 µM
[10]
  GI50: 4.89 µM
  TGI: > 100 µM
